This passage reports Activity value results from patent EP0150227A1, “Dipeptide derivatives and their use in determining the activity of carboxypeptidase A” (FUJIREBIO KABUSHIKI KAISHA also trading as FUJIREBIO INC., priority 1983, dated 1985).

Structures are written as SMILES. Non-standard residues stand in square brackets, D forms with d. Residues, ends and D or L forms follow the SMILES beside them. 4Abz = Nc1ccc(C(=O)O)cc1

Assay type in all cases: biochemical
Assay [1] deals with carboxypeptidase A. Briefly: Spectrophotometric CP-A activity determination (hippuricase, benzoate hydroxylase, decrease of NADPH/NADH absorbance at 340 nm). As for the experimental part: […] of serum (the same as used in Example 6) was added to 0.5 ml of a test reagent solution (pH 8.0) containing 10 mM p-hydroxybenzoylglycyl-L-tyrosine, 3000 U/1 hippuricase, 0.2 mM NADPH, 10000 U/1 p-hydroxybenzoate hydroxylase and 100 mM boric acid.
The decrease in the absorbance by the solution was measured at 340 nm of light at a temperature of 37°C during the course of the reaction. There was used for the measurement a reaction rate analyser in which the reaction time was five minutes. The activity value (mU/ml) of CP-A was automatically printed out in the analyser.
The calculation of activity was performed according to the following formula: [formula] wherein ε = 6.22 x 10^3 (Molecular extinction coefficient of NADPH)
The activity of CP-A was determined by repeating the procedure shown in Example 8 except that o-hydroxybenzoyl-L-isoleucyl-L-phenylalanine was used instead of p-hydroxybenzoylglycyl-L-tyrosine, salicylate hydroxylase was used instead of p-hydroxybenzoate hydroxylase, and nicotinamide adenine dinucleotide in reduced form (NADH) was used instead of NADPH.
The activity of CP-A was determined by repeating the procedure shown in Example 8 with a mixture prepared by adding 0.05 ml of serum (the same as used in Example 6) to 0.5 ml of a test reagent solution (pH 8.0) containing 30 mM p-methoxybenzoyl-L-leucyl-L-phenylalanine, 1000 U/1 hippuricase, 0.2 mM NADH, 20000 U/1 p-methoxybenzoate hydroxylase and 100 mM phosphoric acid.

In assay [2] the test system is carboxypeptidase A. The experiment in a line: Colourimetric CP-A activity determination (hippuricase, NaNO2 diazotisation, azo dye at 505 nm). Conditions: same serum as Example 6; 20 mM substrate, pH 8.0, 37°C, 20 minutes; repeated 20 times, CV 5.3%. The procedure:
0.05 ml of serum (the same as used in Example 6) containing CP-A was added to 0.5 ml of a test reagent solution (pH 8.0) containing 20 mM p-aminobenzoyl-L-alanyl-L-tyrosine, 0.5 M NaCl, 3000 U/1 hippuricase and 100 mM boric acid. After this mixture had been allowed to stand at 37°C for 20 minutes, 0.5 ml of a solution containing 2 mM NaN02 and 1 mM NaOH was added to the mixture, and the mixture was allowed to stand at room temperature for 10 minutes. 0.5 ml of a reagent solution containing 1 mM potassium l-naphthol-2-sulphate, 50 mM boric acid and 200 mM NaOH was added to the mixture. The absorbance by the solution was measured at 505 nm of light. This absorbance is referred to as Absorbance A.
Absorbance B was measured by repeating the procedure as shown above but using 0.05 ml of an aqueous solution containing 10 uM p-aminobenzoic acid instead of 0.05 ml of serum, and Absorbance C was measured by repeating the procedure as shown above but using 0.05 ml of distilled water instead of 0.05 ml of serum.
The activity value (mU/ml) of CP-A can be calculated by the following equation: [formula]

Assay [3] relates to carboxypeptidase A. Briefly: Colourimetric CP-A activity determination (hippuricase, 4-aminoantipyrine, periodate, quinonimine dye at 505 nm). As to conditions: serum containing carboxypeptidase A; 10 mM substrate, pH 7.8, 37°C, 20 minutes; test repeated 20 times, CV 3.4%. As for the experimental part: 0.1 ml of serum containing carboxypeptidase A was added to 0.5 ml of a test reagent solution of pH 7.8 containing 10 mM p-hydroxybenzoyl-L-alanyl-L-phenylalanine, 0.1 M sodium chloride, 3000 U/1 hippuricase, 2.5 mM 4-aminoantipyrine and 100 mM N-2-hydroxyethyl piperazine-N-2-ethane sulphonic acid. The mixture was incubated at 37°C for 20 minutes. 1.5 ml of a reaction termination solution containing 6.5 mM sodium periodate was added to this reaction mixture. The mixture obtained was incubated at 37°C for five minutes, so that quinonimine dye was formed. The absorbance of the reaction mixture was measured at a light wavelength of 505 nm. This absorbance is referred to as Absorbance A.
Separately, for a blank (comparison) test, in the procedure as mentioned above, 1.5 ml of a reaction termination solution containing 6.5 mM sodium […] was added to the test reagent solution before 0.1 ml of serum containing carboxypeptidase A was added to the test reagent solution. The absorbance of the blank test reagent was then measured in the same manner as described above, at a light wavelength of 505 nm. This absorbance is referred to as Absorbance B.
The activity value (mU/ml) of carboxypeptidase A can be calculated by the following equation: [formula] where ε = 12000 (Molecular extinction coefficient or guinon- imine dye)

For the compound `CC[C@H](C)[C@H](NC(=O)c1ccccc1O)C(=O)N[C@@H](Cc1ccccc1)C(=O)O` [o-hydroxybenzoyl-L-isoleucyl-L-phenylalanine], the Activity value in the assay on carboxypeptidase A [1] (procedure of Example 8 with salicylate hydroxylase and NADH, CV 7.0%) is recorded as 1.1 mU/ml. Take `COc1ccc(C(=O)N[C@@H](CC(C)C)C(=O)N[C@@H](Cc2ccccc2)C(=O)O)cc1` [p-methoxybenzoyl-L-leucyl-L-phenylalanine]: in the assay with carboxypeptidase A [1] (same serum as Example 6, 30 mM substrate, pH 8.0, 0.2 mM NADH, p-methoxybenzoate hydroxylase, 100 mM phosphoric acid, CV 4.7%), the Activity value came to 2.5 mU/ml.

In turn, `C[C@H](NC(=O)c1ccc(N)cc1)C(=O)N[C@@H](Cc1ccc(O)cc1)C(=O)O` [p-aminobenzoyl-L-alanyl-L-tyrosine] (H-[4Abz]-Ala-Tyr-OH) displayed an Activity value in the assay on carboxypeptidase A [2] of 1.7 mU/ml.

In turn, `C[C@H](NC(=O)c1ccc(O)cc1)C(=O)N[C@@H](Cc1ccccc1)C(=O)O` [p-hydroxybenzoyl-L-alanyl-L-phenylalanine] had an Activity value in the assay on carboxypeptidase A [3] of 5.1 mU/ml.

Compound `O=C(CNC(=O)c1ccc(O)cc1)N[C@@H](Cc1ccc(O)cc1)C(=O)O` [p-hydroxybenzoylglycyl-L-tyrosine] came in with an Activity value in the assay with carboxypeptidase A [1] (same serum as Example 6, 10 mM substrate, pH 8.0, 37°C, 0.2 mM NADPH, p-hydroxybenzoate hydroxylase, repeated 20 times, CV 5.2%) of 6.2 mU/ml.
